Data taken from ChEMBL document CHEMBL1201862, “PubChem BioAssay data set” (2004).
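How tested: cells in 96-well plates exposed to compound for 48 hours at five concentrations. GI50 = concentration required for 50% inhibition of growth.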 The source made the active and inactive calls. Rule as the data show it: active = GI50 up to about 1.1 µM and inactive = higher.

Columns and labels:
Assay in all cases: NCI-60 cell line screen, 48 h
A549 = system: A549
CCRF-CEM = system: CCRF-CEM
COLO 205 = system: COLO 205
DU-145 = system: DU-145
EKVX = system: EKVX
HL-60 = system: HL-60
K562 = system: K562
KM12 = system: KM12
MDA-N = system: MDA-N
MOLT-4 = system: MOLT-4
NCI/ADR-RES = system: NCI/ADR-RES
OVCAR-5 = system: OVCAR-5
SK-MEL-2 = system: SK-MEL-2
SK-MEL-5 = system: SK-MEL-5
SK-OV-3 = system: SK-OV-3
SR = system: SR
SW-620 = system: SW-620
UO-31 = system: UO-31
Malme-3M = system: Malme-3M

Compound | GI50 (A549) | GI50 (CCRF-CEM) | GI50 (COLO 205) | GI50 (DU-145) | GI50 (EKVX) | GI50 (HL-60) | GI50 (K562) | GI50 (KM12) | GI50 (MDA-N) | GI50 (MOLT-4) | GI50 (NCI/ADR-RES) | GI50 (OVCAR-5) | GI50 (SK-MEL-2) | GI50 (SK-MEL-5) | GI50 (SK-OV-3) | GI50 (SR) | GI50 (SW-620) | GI50 (UO-31) | GI50 (Malme-3M)
Cc1cnc(-c2c[nH]c3ccccc23)nc1-c1c[nH]c2ccccc12 | 3.64 µM (inactive) | 1.52 µM (inactive) | 4.58 µM (inactive) | 6.73 µM (inactive) | 6.21 µM (inactive) | 5 µM (inactive) | 3.3 µM (inactive) | 3.78 µM (inactive) | 4.2 µM (inactive) | 4.2 µM (inactive) | 7.67 µM (inactive) | 5.5 µM (inactive) | 6.44 µM (inactive) | 6.97 µM (inactive) | 11.2 µM (inactive) | 11.3 µM (inactive) | 11.5 µM (inactive) | 6.97 µM (inactive) | 
COc1ccc(C(=O)/C=C/c2ccc(OCCCCCCCCCCOc3ccc(/C=C/C(=O)c4ccc(OC)c(OC)c4)cc3)cc2)c(OC)c1 | > 100 µM (inactive) | > 100 µM (inactive) | > 100 µM (inactive) | > 100 µM (inactive) | > 100 µM (inactive) | > 100 µM (inactive) | > 100 µM (inactive) | > 100 µM (inactive) | > 100 µM (inactive) | > 100 µM (inactive) | > 100 µM (inactive) | > 100 µM (inactive) | > 100 µM (inactive) | > 100 µM (inactive) | > 100 µM (inactive) | > 100 µM (inactive) | > 100 µM (inactive) | > 100 µM (inactive) | 
C/C(=N\NC(=S)N1CCCC1)c1nc2cccnc2[nH]1 | 0.223 µM (active) | 0.0638 µM (active) | 0.378 µM (active) | 0.175 µM (active) |  | 0.162 µM (active) | 0.349 µM (active) | 0.321 µM (active) | 0.979 µM (active) | 0.171 µM (active) | 0.335 µM (active) | 0.457 µM (active) | 4.34 µM (inactive) | 0.217 µM (active) | 0.442 µM (active) | 0.202 µM (active) | 1.22 µM (inactive) | 0.0634 µM (active) | 0.583 µM (active)
Cc1ccc2c(c1)Sc1ccc(/N=N/N(C)C)cc1N2C | > 100 µM (inactive) | 46 µM (inactive) | 78.9 µM (inactive) | > 100 µM (inactive) | > 100 µM (inactive) | 64.6 µM (inactive) |  | 48.8 µM (inactive) | > 100 µM (inactive) | 57.7 µM (inactive) | > 100 µM (inactive) | > 100 µM (inactive) | > 100 µM (inactive) | 96.2 µM (inactive) | > 100 µM (inactive) | 52.8 µM (inactive) | > 100 µM (inactive) | > 100 µM (inactive) | > 100 µM (inactive)
O=c1n(-c2ccccc2)c(=O)n2n1C1Cc3ccccc3C12 (stereo unspecified) | > 100 µM (inactive) | > 100 µM (inactive) | > 100 µM (inactive) | > 100 µM (inactive) | > 100 µM (inactive) | > 100 µM (inactive) | > 100 µM (inactive) | > 100 µM (inactive) | > 100 µM (inactive) | > 100 µM (inactive) | > 100 µM (inactive) | > 100 µM (inactive) | > 100 µM (inactive) | > 100 µM (inactive) | > 100 µM (inactive) | > 100 µM (inactive) | > 100 µM (inactive) | > 100 µM (inactive) | 
O=C1Oc2cc3c(c4cccc1c24)O[C@H](c1ccccc1)[C@@H](c1ccccc1)[C@@H]3c1ccc(Cl)cc1 |  | 49 µM (inactive) | > 100 µM (inactive) | > 100 µM (inactive) | > 100 µM (inactive) | > 100 µM (inactive) | 46.1 µM (inactive) | > 100 µM (inactive) | > 100 µM (inactive) | 19.6 µM (inactive) | > 100 µM (inactive) | > 100 µM (inactive) |  | > 100 µM (inactive) | 45.2 µM (inactive) | 18.8 µM (inactive) | > 100 µM (inactive) |  | 37.3 µM (inactive)
CCOC(=O)c1sc2c(c1OC(=O)c1cccs1)c(=O)n(-c1ccccc1)c(=S)n2-c1ccccc1 | 12.3 µM (inactive) | 5.15 µM (inactive) | 17.3 µM (inactive) | 20.5 µM (inactive) | 36.9 µM (inactive) | 15.5 µM (inactive) | 19.9 µM (inactive) | 16.1 µM (inactive) | 30.5 µM (inactive) | 10.7 µM (inactive) | 11.1 µM (inactive) | 22.6 µM (inactive) |  | 13.5 µM (inactive) | 18.2 µM (inactive) | 0.0151 µM (active) | 19.3 µM (inactive) | 0.175 µM (active) | 12.9 µM (inactive)
CN(/N=C/c1ccc(C(=O)O)cc1)C1=NCCCCN1 | > 100 µM (inactive) | > 100 µM (inactive) | > 100 µM (inactive) | > 100 µM (inactive) | > 100 µM (inactive) | > 100 µM (inactive) | > 100 µM (inactive) | > 100 µM (inactive) | > 100 µM (inactive) | > 100 µM (inactive) | > 100 µM (inactive) | > 100 µM (inactive) |  | > 100 µM (inactive) | > 100 µM (inactive) | > 100 µM (inactive) |  | > 100 µM (inactive) | > 100 µM (inactive)
